According to a melting point compilation (Tetko et al.; mined from patent text by program, amines drawn as free bases though some values may be those of a salt):

Row | Compound | melting point [°C]
1 | CCCC(C)(Oc1ccccc1C)C(=O)OC1CC(O)C=C2C=CC(C)C(CCC3CC(O)CC(=O)O3)C21 (mixture of isomers) | 161 to 163
2 | COc1ccc(C(=O)Nc2ccc3ccc(C#N)nc3n2)cc1 | 283
3 | COc1cc2c(cc1OCc1ccccc1)C(Sc1ccccc1)(C(N)=CC#N)C2 (stereo not given) | 122 to 125
4 | O=C(NC(=O)C(c1ccccc1)c1ccccc1)OCC(F)(F)F | 125 to 127
5 | O=C(Cn1nnc2cccnc21)Nc1ccc(-n2nc(C(F)(F)F)cc2C2CC2)cc1 | 206 to 209
6 | Nc1ccc2c(c1Br)C(=O)C1(CC1)O2 | 167 to 170
7 | CCCn1cc(Cc2ccc(C(=O)NS(=O)(=O)c3ccccc3C)cc2OC)c2cc(CC3CCCN(C)C3=O)ccc21 (stereo not given) | 120 to 128
8 | COC(C(=O)O)c1nn(-c2ccccc2)c2c1CCC2 (stereo not given) | 106 to 107
9 | CC=NOCc1nc2c(N)nc3ccccc3c2n1CC(C)C | 155 to 156
10 | O=C(O)C1=Cc2cc(Cl)c(Oc3ccc(C(F)(F)F)cc3)cc2OC1C(F)(F)F (stereo not given) | 231 to 232
11 | Nc1nnc(-c2ccc3ncn(-c4ccccc4Cl)c3c2)o1 | 254 to 255
12 | CC(C)(C)NC(=O)c1nn(-c2c(F)cc(F)cc2F)c2c1C1CCC2C1 (stereo not given) | 142 to 146
13 | N#CCC1(c2ccc(Cl)cc2)CCC1 | 63 to 65
14 | Nc1sccc1C(=O)c1ccccc1 | 150 to 152
15 | O=C1CCC(O)(c2nc3ccccc3s2)CC1 | 134
16 | Cc1c(C(=O)c2ccccc2)c(=O)n(C)c(=O)n1C | 132 to 134
17 | CN(C)C(=O)C1Cc2ccc(N)cc2NC1=O (stereo not given) | 219 to 223
18 | OC(c1ccccc1)c1ccc2[nH]nnc2c1 (stereo not given) | 143
19 | Cc1c(Nc2cc(-c3cccc(C4NCCc5c4sc4c5CC(C)(C)C4)c3CO)cn(C)c2=O)cnn1C (stereo not given) | 164 to 165
20 | Cc1ccccc1NC(=O)c1c(Br)cccc1[Si](C)(C)C | 113 to 115

Row | Compound | melting point [°C]
21 | COc1ccc(N2CCN(c3c(C)c(C)c4c(c3C)C(O)(c3cccs3)C(C)(C)O4)CC2)cc1 (stereo not given) | 154 to 155
22 | [N-]=[N+]=NCC1CN(c2cc(F)c(-c3cccnc3)c(F)c2)C(=O)O1 (stereo not given) | 97 to 98
23 | CCn1c(=O)c(-c2c(Cl)cccc2Cl)cc2cnc(Nc3ccc(OC)c(OC)c3)nc21 | 221 to 223
24 | COc1cc2ccc([C@](O)(c3c[nH]cn3)C(C)C)cc2cc1OC | 156 to 157
25 | O=C1c2c(Cl)cccc2-n2cncc2[C@@H]2CCN12 | 207 to 208
26 | Cn1c(=O)c(=O)n(Cc2ccc(Cl)cc2Cl)c2cc(C(=O)O)ccc21 | 320 to 322
27 | COc1ccc(C(=O)C(N=C=S)c2ccc(OC)cc2)cc1 (stereo not given) | 155
28 | CC1CC(c2c(S(C)(=O)=O)ccc(C(=O)O)c2Cl)=NO1 (stereo not given) | 173 to 178
29 | CS(=O)(=O)C1Cc2cc(Cl)ccc2C1=O (stereo not given) | 197
30 | CC(C)NC(=O)n1nc(Oc2c(Cl)cc(C(F)(F)F)cc2Cl)cc1C(Cl)(Cl)Cl | 105 to 106
31 | CCCCOc1ccc(-c2ccc(=O)[nH]n2)cc1OC | 165
32 | Cc1nc(N2CC(Cc3ccccc3)CC2=O)sc1C(=O)NCc1ccccc1 (stereo not given) | 143 to 144
33 | O=C(O)c1cccc2c1CCCc1ccccc1-2 | 137 to 139
34 | c1ccc2c(c1)Oc1ccccc1C2NCCn1ccnc1 | 90 to 92
35 | N#CCCc1cccc(O)c1 | 64 to 66
36 | CS(=O)(=O)c1ccc(-c2oncc2CCCO)cc1 | 125 to 126
37 | CCOC(=O)/C=C/c1ccccc1C1C(C(=O)OCC)=C(C)NC(C)=C1C(=O)OCC | 130 to 131
38 | CCc1c(F)c(F)c(F)c2c1c(=O)c(C(=O)O)cn2C1CC1 | 197 to 198
39 | COC(=O)C1C=CCN2C(=O)C(C)(CCI)C(=O)N12 (stereo not given) | 86 to 87
40 | O=C(C=Cc1ccc(NC(=O)c2ccccc2)cc1)NO | 232 to 234
